From ChEMBL document CHEMBL5528047, “A Potent SOS1 PROTAC Degrader with Synergistic Efficacy in Combination with KRASG12C Inhibitor” (J Med Chem, 2024)

Assays:
[1] = target: T1, von Hippel-Lindau disease tumor suppressor/Son of sevenless homolog 1 (Homo sapiens, UniProt Q07889+P40337); assay: Protac activity at VHL/SOS1 in human K562 cells assessed as SOS1 degradation at 1 uM by Western blotting analysis relative to control; type: cell-based
Target sequence in this assay (P40337 whole entry, looked up): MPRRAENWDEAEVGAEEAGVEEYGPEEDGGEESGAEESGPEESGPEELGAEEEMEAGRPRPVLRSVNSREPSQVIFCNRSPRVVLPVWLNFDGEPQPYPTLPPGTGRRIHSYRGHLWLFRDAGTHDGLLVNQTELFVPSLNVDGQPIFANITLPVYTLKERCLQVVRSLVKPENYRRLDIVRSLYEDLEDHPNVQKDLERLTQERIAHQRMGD
Target sequence in this assay (Q07889 whole entry, looked up): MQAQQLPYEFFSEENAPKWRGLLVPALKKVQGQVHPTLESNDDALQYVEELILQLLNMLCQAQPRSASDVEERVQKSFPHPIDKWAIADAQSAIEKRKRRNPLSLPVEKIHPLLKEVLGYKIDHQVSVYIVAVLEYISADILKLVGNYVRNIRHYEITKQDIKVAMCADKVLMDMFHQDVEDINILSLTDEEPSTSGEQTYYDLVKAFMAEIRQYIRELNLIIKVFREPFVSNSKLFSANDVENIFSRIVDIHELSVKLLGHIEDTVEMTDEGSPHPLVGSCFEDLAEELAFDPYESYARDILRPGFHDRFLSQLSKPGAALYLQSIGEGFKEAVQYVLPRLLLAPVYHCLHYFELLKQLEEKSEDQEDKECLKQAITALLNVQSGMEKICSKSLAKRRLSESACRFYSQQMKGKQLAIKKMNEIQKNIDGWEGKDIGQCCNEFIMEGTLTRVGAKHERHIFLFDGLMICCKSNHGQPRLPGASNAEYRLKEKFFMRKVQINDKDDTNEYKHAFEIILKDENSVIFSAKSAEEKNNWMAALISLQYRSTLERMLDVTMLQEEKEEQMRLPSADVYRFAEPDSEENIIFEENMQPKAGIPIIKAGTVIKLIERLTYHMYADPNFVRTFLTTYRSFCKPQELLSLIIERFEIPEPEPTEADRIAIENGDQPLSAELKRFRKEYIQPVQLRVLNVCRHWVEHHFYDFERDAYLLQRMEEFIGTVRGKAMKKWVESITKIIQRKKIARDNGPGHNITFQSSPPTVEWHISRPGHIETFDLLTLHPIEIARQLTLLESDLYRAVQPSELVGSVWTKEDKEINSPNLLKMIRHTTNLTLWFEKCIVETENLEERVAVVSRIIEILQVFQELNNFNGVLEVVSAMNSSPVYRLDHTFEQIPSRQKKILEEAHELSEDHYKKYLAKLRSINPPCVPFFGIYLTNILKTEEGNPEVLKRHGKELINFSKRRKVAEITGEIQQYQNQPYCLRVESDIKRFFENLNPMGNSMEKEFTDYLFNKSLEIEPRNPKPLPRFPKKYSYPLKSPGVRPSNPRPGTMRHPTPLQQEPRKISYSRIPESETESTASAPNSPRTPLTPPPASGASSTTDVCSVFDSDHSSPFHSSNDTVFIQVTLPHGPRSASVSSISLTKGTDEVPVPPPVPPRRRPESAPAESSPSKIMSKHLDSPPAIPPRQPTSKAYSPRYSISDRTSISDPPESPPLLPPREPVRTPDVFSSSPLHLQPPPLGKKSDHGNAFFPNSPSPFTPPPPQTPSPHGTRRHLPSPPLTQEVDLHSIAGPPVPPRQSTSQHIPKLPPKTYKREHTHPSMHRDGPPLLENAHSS

[2] = target: T1, von Hippel-Lindau disease tumor suppressor/Son of sevenless homolog 1; assay: Protac activity at VHL/SOS1 in human PANC-1 cells assessed as SOS1 degradation at 10 uM by Western blotting analysis relative to control; type: cell-based
Target sequence in this assay (P40337 whole entry, looked up): as the sequence (P40337 whole entry, looked up) above
Target sequence in this assay (Q07889 whole entry, looked up): as the sequence (Q07889 whole entry, looked up) above

[3] = target: T1, von Hippel-Lindau disease tumor suppressor/Son of sevenless homolog 1; assay: Protac activity at VHL/SOS1 in human PANC-1 cells assessed as SOS1 degradation at 1 uM by Western blotting analysis relative to control; type: cell-based
Target sequence in this assay (P40337 whole entry, looked up): as the sequence (P40337 whole entry, looked up) above
Target sequence in this assay (Q07889 whole entry, looked up): as the sequence (Q07889 whole entry, looked up) above

[4] = target: T1, von Hippel-Lindau disease tumor suppressor/Son of sevenless homolog 1; assay: Protac activity at VHL/SOS1 in human K562 cells assessed as SOS1 degradation at 10 uM by Western blotting analysis relative to control; type: cell-based
Target sequence in this assay (P40337 whole entry, looked up): as the sequence (P40337 whole entry, looked up) above
Target sequence in this assay (Q07889 whole entry, looked up): as the sequence (Q07889 whole entry, looked up) above

[5] = target: T2, Protein cereblon/Son of sevenless homolog 1 (Homo sapiens) (UniProt Q07889+Q96SW2); assay: Protac activity at CRBN/SOS1 in human K562 cells assessed as SOS1 degradation at 1 uM by Western blotting analysis relative to control; type: cell-based
T2 sequence (Q07889 whole entry, looked up): as above
T2 sequence (Q96SW2 whole entry, looked up): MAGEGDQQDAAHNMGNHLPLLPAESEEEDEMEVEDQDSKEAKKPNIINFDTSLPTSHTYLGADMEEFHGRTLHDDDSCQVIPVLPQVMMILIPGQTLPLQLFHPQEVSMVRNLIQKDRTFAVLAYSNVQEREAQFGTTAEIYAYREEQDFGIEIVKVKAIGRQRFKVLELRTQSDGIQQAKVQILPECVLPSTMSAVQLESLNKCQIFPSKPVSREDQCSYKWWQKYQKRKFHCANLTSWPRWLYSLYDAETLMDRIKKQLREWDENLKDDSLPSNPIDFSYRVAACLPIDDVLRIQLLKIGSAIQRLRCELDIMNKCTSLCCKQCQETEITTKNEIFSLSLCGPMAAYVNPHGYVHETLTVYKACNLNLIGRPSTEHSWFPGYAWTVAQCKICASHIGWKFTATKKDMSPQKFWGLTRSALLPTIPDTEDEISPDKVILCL

[6] = target: T2, Protein cereblon/Son of sevenless homolog 1 (Homo sapiens); assay: Protac activity at CRBN/SOS1 in human K562 cells assessed as SOS1 degradation at 10 uM by Western blotting analysis relative to control; type: cell-based
[7] = target: T2, Protein cereblon/Son of sevenless homolog 1 (Homo sapiens); assay: Protac activity at CRBN/SOS1 in human PANC-1 cells assessed as SOS1 degradation at 10 uM by Western blotting analysis relative to control; type: cell-based
[8] = target: T2, Protein cereblon/Son of sevenless homolog 1 (Homo sapiens); assay: Protac activity at CRBN/SOS1 in human PANC-1 cells assessed as SOS1 degradation at 1 uM by Western blotting analysis; type: cell-based
[9] = target: T1, von Hippel-Lindau disease tumor suppressor/Son of sevenless homolog 1; assay: Protac activity at VHL/SOS1 in human PANC-1 cells assessed as SOS1 degradation incubated for 24 hrs by Western blotting analysis; type: cell-based
[10] = target: T1, von Hippel-Lindau disease tumor suppressor/Son of sevenless homolog 1; assay: Protac activity at VHL/SOS1 in human MIA PaCa-2 cells assessed as SOS1 degradation incubated for 24 hrs by Western blotting analysis; type: cell-based
[11] = target: T1, von Hippel-Lindau disease tumor suppressor/Son of sevenless homolog 1; assay: Protac activity at VHL/SOS1 in human NCI-H358 cells assessed as SOS1 degradation incubated for 24 hrs by Western blotting analysis; type: cell-based
[12] = target: T1, von Hippel-Lindau disease tumor suppressor/Son of sevenless homolog 1; assay: Protac activity at VHL/SOS1 in human K562 cells assessed as SOS1 degradation incubated for 24 hrs by Western blotting analysis; type: cell-based
[13] = test system: MIA PaCa-2; assay: Antiproliferative activity against human MIA PaCa-2 cells incubated for 72 hrs by CCK8 assay; type: functional, cell-based; settings: MIA PaCa-2, 72 h
[14] = test system: K562; assay: Antiproliferative activity against human K562 cells incubated for 72 hrs by CCK8 assay; type: functional, cell-based; settings: K562, 72 h

Activity [1] [%] | Activity [2] [%] | Activity [3] [%] | Activity [4] [%] | SMILES | other results
18.9 | 0 | 5.6 | 6.7 | CNCc1ccccc1-c1csc([C@@H](C)Nc2nc(C)nc3cc(OC)c(C4=CCN(C(=O)CCC(=O)N[C@H](C(=O)N5C[C@H](O)C[C@H]5C(=O)NCc5ccc(-c6scnc6C)cc5)C(C)(C)C)CC4)cc23)c1 | –
0 | 0 | 0 | 0 | COc1cc2nc(C)nc(N[C@H](C)c3cc(-c4ccccc4CNCCC4CCN(C(=O)CC(=O)N[C@H](C(=O)N5C[C@H](O)C[C@H]5C(=O)NCc5ccc(-c6scnc6C)cc5)C(C)(C)C)CC4)cs3)c2cc1OC | –
0 | 0 | 48.3 | 0 | COc1cc2nc(C)nc(N[C@H](C)c3cc(N)cc(C(F)(F)F)c3)c2cc1OCCCCCCCCCC(=O)N[C@H](C(=O)N1C[C@H](O)C[C@H]1C(=O)NCc1ccc(-c2scnc2C)cc1)C(C)(C)C | –
– | – | – | – | COc1cc2nc(C)nc(N[C@H](C)c3cc(-c4ccccc4CNCCCCCCCNc4ccc5c(c4)C(=O)N(C4CCC(=O)NC4=O)C5=O)cs3)c2cc1OC (stereo partly specified) | Activity [5]: 35.4%; Activity [6]: 72.1%; Activity [7]: 3.4%; Activity [8]: 0%
28.1 | 0 | 0 | 21.8 | CNCc1ccccc1-c1csc([C@@H](C)Nc2nc(C)nc3cc(OC)c(OCCCCCCC(=O)N[C@H](C(=O)N4C[C@H](O)C[C@H]4C(=O)NCc4ccc(-c5scnc5C)cc4)C(C)(C)C)cc23)c1 | –
0 | 0 | 28.8 | 0 | COc1cc2nc(C)nc(N[C@H](C)c3cc(N)cc(C(F)(F)F)c3)c2cc1OCCCCCCCC(=O)N[C@H](C(=O)N1C[C@H](O)C[C@H]1C(=O)NCc1ccc(-c2scnc2C)cc1)C(C)(C)C | –
0 | 21.5 | 28.2 | 0 | COc1cc2nc(C)nc(N[C@H](C)c3cc(N)cc(C(F)(F)F)c3)c2cc1OCCCCCCCCC(=O)N[C@H](C(=O)N1C[C@H](O)C[C@H]1C(=O)NCc1ccc(-c2scnc2C)cc1)C(C)(C)C | –
0 | 24.4 | 0 | 31.6 | COc1cc2nc(C)nc(N[C@H](C)c3cc(-c4ccccc4CNCCCCCCCCC(=O)N[C@H](C(=O)N4C[C@H](O)C[C@H]4C(=O)NCc4ccc(-c5scnc5C)cc4)C(C)(C)C)cs3)c2cc1OC | –
16.6 | 30.2 | 0 | 28.3 | CNCc1ccccc1-c1csc([C@@H](C)Nc2nc(C)nc3cc(OC)c(C4=CCN(C(=O)CCCCC(=O)N[C@H](C(=O)N5C[C@H](O)C[C@H]5C(=O)NCc5ccc(-c6scnc6C)cc5)C(C)(C)C)CC4)cc23)c1 | –
2.3 | 0 | 8.4 | 18.7 | CNCc1ccccc1-c1csc([C@@H](C)Nc2nc(C)nc3cc(OC)c(C4=CCN(C(=O)CCCC(=O)N[C@H](C(=O)N5C[C@H](O)C[C@H]5C(=O)NCc5ccc(-c6scnc6C)cc5)C(C)(C)C)CC4)cc23)c1 | –
0 | 0 | 26 | 0 | COc1cc2nc(C)nc(N[C@H](C)c3cc(-c4ccccc4CNCC4CCN(C(=O)CC(=O)N[C@H](C(=O)N5C[C@H](O)C[C@H]5C(=O)NCc5ccc(-c6scnc6C)cc5)C(C)(C)C)CC4)cs3)c2cc1OC | –
27 | 14.3 | 0 | – | CNCc1ccccc1-c1csc([C@@H](C)Nc2nc(C)nc3cc(OC)c(OCCCCCCCC(=O)N[C@H](C(=O)N4C[C@H](O)C[C@H]4C(=O)NCc4ccc(-c5scnc5C)cc4)C(C)(C)C)cc23)c1 | –
27.4 | 12.7 | 0 | 58.9 | COc1cc2nc(C)nc(N[C@H](C)c3cc(-c4ccccc4CNCCCCCCCC(=O)N[C@H](C(=O)N4C[C@H](O)C[C@H]4C(=O)NCc4ccc(-c5scnc5C)cc4)C(C)(C)C)cs3)c2cc1OC | –
0 | 3.4 | 27 | 0 | COc1cc2nc(C)nc(N[C@H](C)c3cc(N)cc(C(F)(F)F)c3)c2cc1OCCCCCCC(=O)N[C@H](C(=O)N1C[C@H](O)C[C@H]1C(=O)NCc1ccc(-c2scnc2C)cc1)C(C)(C)C | –
34.7 | 0 | 0 | – | CNCc1ccccc1-c1csc([C@@H](C)Nc2nc(C)nc3cc(OC)c(OCCCCCCCCC(=O)N[C@H](C(=O)N4C[C@H](O)C[C@H]4C(=O)NCc4ccc(-c5scnc5C)cc4)C(C)(C)C)cc23)c1 | –
0 | 19.6 | 23 | 0 | COc1cc2nc(C)nc(N[C@H](C)c3cc(-c4ccccc4CNCC4CCN(CC5CCN(C(=O)CC(=O)N[C@H](C(=O)N6C[C@H](O)C[C@H]6C(=O)NCc6ccc(-c7scnc7C)cc6)C(C)(C)C)CC5)CC4)cs3)c2cc1OC | –
0 | 5.8 | 0 | 25.3 | COc1cc2nc(C)nc(N[C@H](C)c3cc(-c4ccccc4CNCCCCCCCCCC(=O)N[C@H](C(=O)N4C[C@H](O)C[C@H]4C(=O)NCc4ccc(-c5scnc5C)cc4)C(C)(C)C)cs3)c2cc1OC | –
0 | 0 | 0 | 0 | COc1cc2nc(C)nc(N[C@H](C)c3cc(N)cc(C(F)(F)F)c3)c2cc1OCCCCCC(=O)N[C@H](C(=O)N1C[C@H](O)C[C@H]1C(=O)NCc1ccc(-c2scnc2C)cc1)C(C)(C)C | –
0 | 49.8 | 29.1 | 0 | COc1cc2nc(C)nc(N[C@H](C)c3cc(-c4ccccc4CNCCCN4CCC(C(=O)N[C@H](C(=O)N5C[C@H](O)C[C@H]5C(=O)NCc5ccc(-c6scnc6C)cc5)C(C)(C)C)CC4)cs3)c2cc1OC | –
– | – | – | – | COc1cc2nc(C)nc(N[C@H](C)c3cc(-c4ccccc4CNCCCCCCNc4ccc5c(c4)C(=O)N(C4CCC(=O)NC4=O)C5=O)cs3)c2cc1OC (stereo partly specified) | Activity [5]: 0%; Activity [6]: 37.7%; Activity [7]: 0%; Activity [8]: 0%
0 | 11 | 13.2 | 0 | COc1cc2nc(C)nc(N[C@H](C)c3cc(-c4ccccc4CNCCCCCC(=O)N[C@H](C(=O)N4C[C@H](O)C[C@H]4C(=O)NCc4ccc(-c5scnc5C)cc4)C(C)(C)C)cs3)c2cc1OC | –
– | – | – | – | COc1cc2nc(C)nc(C[C@H](C)c3cc(-c4ccccc4CNCCCCCCCCCNc4ccc5c(c4)C(=O)N(C4CCC(=O)NC4=O)C5=O)cs3)c2cc1OC (stereo partly specified) | Activity [5]: 0%; Activity [6]: 89.1%; Activity [7]: 0%; Activity [8]: 10.3%
18.9 | 75.1 | 44 | 80.1 | COc1cc2nc(C)nc(N[C@H](C)c3cc(-c4ccccc4CNCCCCCCC(=O)N[C@H](C(=O)N4C[C@H](O)C[C@H]4C(=O)NCc4ccc(-c5scnc5C)cc4)C(C)(C)C)cs3)c2cc1OC | Activity [9]: Dose-Dependent Effect; DC50 [9]: 0.701 µM; Activity [10]: Dose-Dependent Effect; DC50 [10]: 0.87 µM; Activity [11]: Dose-Dependent Effect; DC50 [11]: 0.91 µM; Activity [12]: Dose-Dependent Effect; DC50 [12]: 0.776 µM
– | – | – | – | COc1cc2nc(C)nc(N[C@H](C)c3cc(-c4ccccc4CNCCCCCCCCNc4ccc5c(c4)C(=O)N(C4CCC(=O)NC4=O)C5=O)cs3)c2cc1OC (stereo partly specified) | Activity [5]: 35.6%; Activity [6]: 46.7%; Activity [7]: 0%; Activity [8]: 1.3%
0 | 0 | 0 | 0 | COc1cc2nc(C)nc(N[C@H](C)c3cc(N)cc(C(F)(F)F)c3)c2cc1OCCCC(=O)N[C@H](C(=O)N1C[C@H](O)C[C@H]1C(=O)NCc1ccc(-c2scnc2C)cc1)C(C)(C)C | –
– | – | – | – | COc1cc2nc(C)nc(N[C@H](C)c3cc(N)cc(C(F)(F)F)c3)c2cc1O[C@H]1CCOC1 | IC50 [13]: 0.029 µM; IC50 [14]: 1.42 µM
27.5 | 0 | 8.8 | 32.9 | CNCc1ccccc1-c1csc([C@@H](C)Nc2nc(C)nc3cc(OC)c(OCCCCC(=O)N[C@H](C(=O)N4C[C@H](O)C[C@H]4C(=O)NCc4ccc(-c5scnc5C)cc4)C(C)(C)C)cc23)c1 | –
22.5 | 0 | 0 | 0 | CNCc1ccccc1-c1csc([C@@H](C)Nc2nc(C)nc3cc(OC)c(OCCCCCC(=O)N[C@H](C(=O)N4C[C@H](O)C[C@H]4C(=O)NCc4ccc(-c5scnc5C)cc4)C(C)(C)C)cc23)c1 | –
